Test results reported in paper PMC4683533, “Discovery of novel INK4C small-molecule inhibitors to promote human and murine hematopoietic stem cell ex vivo expansion” (Scientific Reports, 2015).

How the values were obtained:
[1] = tested on: human cord blood CD34+ cells (CD34+CD49f+ cells); experiment: human cord blood CD34+ cell ex vivo culture and screen; assay type: cell-based; settings: dose response, Fig. 4B
Protocol: Based on our study of murine HSCs, we further tested whether these p18SMIs could expand human cord blood CD34^+ cells in ex vivo culture. […] We cultured human cord blood CD34^+ cells for 7 days in HSCs expansion media in the presence of 200 nM of p18SMIs, and then analyzed the percentage and absolute number of CD34^+CD49f^+ cells by flow cytometry. We screened 40 p18SMIs, of which14 compounds could increase the number of CD34^+CD49f^+ cells compared with the control group (Fig. S6). […] Then we conducted a concentration gradient assay on top three p18SMIs with ED50 less than 10 nM (compounds 22, 40 and 41). […] Only in specific doses could they show their expansion effect on human HSCs (Fig. 4B).
Human cord blood samples were collected from consenting donors according to ethically approved procedures at Tianjin Central Hospital of Gynecology Obstetrics (Tianjin, China), under a protocol approved by the Ethical Committee on Medical Research at the Institute of Hematology. Human CD34^+ cord blood cells were isolated using human CD34 MicroBead Kit (MiltenyiBiotec) according to the manufacturer’s protocol after settling red cells with HES and red cells lysis with ACK Lysis Buffer.
Human CD34^+ cells were cultured in expansion medium consisting of StemSpan SFEM (StemCell Technologies) supplemented with 100 ng/mL human stem cell factor (SCF, PeproTech), 50 ng/mL human thrombopoietin (TPO, PeproTech), 100 ng/mL human FMS-like trysine kinase 3 ligand (Flt3L, PeproTech). Human CD34^+ cells were resuspended in expansion medium (5 × 10^4 cells/mL) before being aliquoted in 96-well plates (Costar, Corning Incorporated). Compounds, all with a final concentration of 200 nM, were dissolved in DMSO and added immediately in cell suspension after plating. The final concentration of DMSO in the control group was the same as in the compounds-treated group. Cells were cultured at 37 °C in 5% CO2. Based on the results of primary screening upon human cells and the results of ED50, we chose three compounds for further experiments. The expansion medium was changed to StemSpan SFEM (StemCell Technologies) supplemented with 100 ng/mL human stem cell factor (SCF, PeproTech), 100 ng/mL human thrombopoietin (TPO, PeproTech), 100 ng/mL human FMS-like trysine kinase 3 ligand (Flt3L, PeproTech) and 100 ng/mL human interleukin-6 (IL-6, PeproTech) for better expansion effect. The incubation condition was consistent with before.
Phenotypes analysis of cultured cells was performed on a BD FACS Array (Becton Dickinson Biosciences) using a combination of the following antibodies: APC anti-CD34 (BD Biosciences), PE anti-CD49f (BD Biosciences). Stained cells were washed once with PBS and then measured and analyzed on an FACS analyzer (FACSArray, BD Biosciences).

[2] = tested on: HSCs (CD34−LKS cells); experiment: single hematopoietic stem cell in vitro culture (nmEM colony) assay; assay type: cell-based, mouse; settings: single CD34−LKS cell culture, 14 days, ratio of nmEM wells to DMSO control
Protocol: We biologically assessed the 22 putative p18SMI compounds for their ability to maintain HSCs stem cell characteristics, to be specific self-renewal and multi-lineage differentiation, using single cell cultures. […] Thus, we employed single HSC culture to assess p18SMI compounds’ effect upon HSCs. CD34^−LKS cells from C57BL/6 mice were individually deposited into a 96-well plate (one cell/well). The single cell was cultured for 14 days in 100 μL of serum-free medium (Gibco) containing 100 ng/mL of mouse stem cell factor (SCF), 10 ng/mL of mouse interleukin-3 (IL-3), 25 ng/mL of human thrombopoietin (TPO), 2 U/mL of human erythropoietin (EPO) and differing concentrations of the p18SMI compound. Cells were cultured 14 days for in vitro colony formation and colonies were then cytospined and analyzed by flow cytometry to test the subpopulation of cultured cells. Neutrophils (n), macrophages (m), erythroblasts (E) or megakaryocytes (M) were identified by the cell marker of Gr-1, Mac-1, Ter-119 and CD41 using flow cytometry. The wells from each group that generated all lineages (nmEM) were counted and the ratio to the control group (DMSO) was calculated.
Single CD34^-LKS cells from C57BL/6 mice were individually deposited into each well of a 96-well plate along with 100 μL of serum free medium (Gibco) containing 100 ng/mL of mouse SCF, 10 ng/mL of mouse IL-3, 25 ng/mL of human TPO, 2 U/mL of human EPO and p18SMI compounds (different dilutions). Cells were cultured in a 37 °C, 5% CO2 incubator for 14 days for ex vivo colony formation. Colonies were then cytospined and analyzed using flow cytometry. Neutrophils (n), macrophages (m), erythroblasts (E) or megakaryocytes (M) were identified based on their cell surface maker, Gr-1, Mac-1, Ter119 and CD41. Cells were measured on an FACS analyzer (FACSArray, BD Biosciences). […] The wells from each group that generated all lineages (nmEM) were counted. The ratio of p18SMI compound treatment group to the control group (DMSO-treated) was calculated and fitted to a curve to calculate the ED50 value using GraphPad Prism v6.0.

[3] = tested on: LT-HSCs; design: method as in PMID 25692908; settings: CDK inhibitor alone; cited from earlier work
[4] = tested on: LT-repopulating HSCs (CD34-LKS cells); experiment: competitive bone marrow transplantation (cBMT) assay; assay type: in vivo, mouse
Protocol: Figure 3 Treatment of c-Kit-enriched murine BM cells with p18SMI compounds enhances HSC expansion. (A) The average number of total cells, HSPCs (Lin^−Sca1^+) and long term (LT)-HSCs (Lin^-Sca1^+CD48^−CD150^+) were analyzed by flow cytometry. (B) Single CD34^−LKS cell were deposited into each well of a 96-well plate, along with differentiation medium plus different concentrations of p18SMI compounds to show the dose-response effect of p18SMI compounds. (C) CAFC-LDA assay of cells treated with XIE18-6, compound 40 and DMSO to reveal the frequency of primitive HSCs. Above data (A–C) is mean ± SEM for all experiments of two or more and were performed in duplicate or triplicate. (D) Experimental design for transplantation (n = 10). CD34^-LKS cells were sorted into 96-well plates at 50 cells/well and cultured for 3 days with cytokine plus 20 μM of compounds or DMSO. Cells from each well were mixed with 2 × 10^6 freshly isolated bone marrow MNCs and co-transplanted by tail-vein injection into lethally irradiated CD45.2 recipient mice. 16 weeks after transplantation, bone marrow MNCs were stained to determine the engraftment level of donor cells. Bone marrow MNCs were also stained for lineage analysis. Multi-lineage differentiation was examined by flow cytometry. GM, T and B indicate lineages for myeloid, T and B cells, respectively. (E,F) The engraftment levels at 16 weeks after primary transplantation, and multi-lineage differentiation profile. Data is mean ± SEM for all experiments (***p < 0.001, **p < 0.01). TEXT PRINTED IN THE PICTURE: (E) #40: Engrafment%: *** 5.93X | (E) XIE18-6: Engrafment%: ** 3.01X DOUBTS OF THE COPYIST ABOUT THIS PICTURE: Panel E: 5.93X and 3.01X are printed on brackets running from #40 and from XIE18-6 to DMSO. No measure is printed beside them, so the axis label 'Engrafment%' was used as the measure.
The increased frequency and total number of functional LT-HSCs after treatment with p18SMI compounds was further confirmed by competitive bone marrow transplantation (cBMT) assay (Fig. 3D). CD34^-LKS cells were first sorted and cultured w/o p18SMI compound for 3 days. Then the cultured cells were gathered and co-transplanted into lethally irradiated mice with competitor cells. […] Moreover, the engraftment of the group treated with compound 40 was double of that of the group treated with XIE18–6.

[5] = tested on: HSCs (bone marrow MNCs); experiment: cobblestone area forming cells (CAFC) assay with limiting dilution assay (LDA); assay type: cell-based, mouse; settings: day 35
Protocol: We also investigated whether the increased number of phenotypic SLAM^+LT-HSCs in short-term culture assays was correlated with an increase in functional LT-HSCs. Cobblestone area forming cells (CAFC) assay combined with limiting-dilution assays (LDA) were performed to measure the frequency of HSCs[19][22][30]. Compared with the control group (HSC frequency is 1 in 112,559 of the original plated cells), the frequency of HSC at day 35 (indicating the activity of hematopoietic reconstitution capacity) was 2.7-fold and 3.0-fold higher in the cultures treated with XIE18–6 (HSC frequency is 1 in 42,490 of the original plated cells) and compound 40 (HSC frequency is 1 in 37,524 of the original plated cells) (p < 0.001, Fig. 3C), respectively.
Freshly isolated bone marrow MNCs from mice, 6–8 weeks old, were plated in a 24-well plate with 1 mL Dexter’s medium at a density of 2 × 10^6 cells per mL in the absence or presence of different doses of the tested compounds. The culture was maintained at 33 °C with 5% CO2. The number of cobblestone areas (CAs) was counted weekly. The medium was also replaced with half fresh medium on a weekly basis. For the limiting dilution analysis (LDA) of the test cells, different limiting doses were plated on the irradiated stromal cells in 96-well plates containing 200 μL of M5300 medium (StemCell Technologies) supplemented with 10^−6 M hydrocortisone. Each group was done with 20 replicates well. Small-molecule compounds were added to the co-culture system at different doses. Half of the medium in each well was replaced with fresh medium containing the test compounds weekly. The existence of CA in each well was evaluated under an inverted microscope at weekly intervals for 5 weeks. Based on the Poisson distribution of the negative wells, the frequency of long-term initiating cells was calculated with L-Calc software (StemCell Technologies).

Row | SMILES | expansion of human HSCs in concentration gradient assay [1] | ED50 (activity to promote the expansion of HSCs) [2] [nM] | maintenance of HSCs population [3] | also measured
1 | COC(=O)[C@H](NS(=O)(=O)c1ccc(NC(C)=O)cc1)c1ccccc1 [Compound 22] | concentration related | – | – | –
2 | O=C(O)c1ccc(S(=O)(=O)NC2CCCCC2)cc1 [Compound 39, 4-(N-cyclohexylsulfamoyl)benzoic acid] | – | 120 | – | –
3 | CC(=O)Nc1ccc(C(=O)Oc2ccc3c(C(C)C)cc(=O)oc3c2)cc1 [Compound 41, 4-Isopropyl-2-oxo-2H-chromen-7-yl 4-acetamidobenzoate] | concentration related | – | – | –
4 | CC(=O)c1c(C)c2cnc(Nc3ccc(N4CCNCC4)cn3)nc2n(C2CCCC2)c1=O [PD0332991] | – | – | could not maintain HSCs population | –
5 | CC(C)(C)c1cnc(CSc2cnc(NC(=O)C3CCNCC3)s2)o1 [SNS032] | – | – | could not maintain HSCs population | –
6 | CC(=O)Nc1ccc(S(=O)(=O)Oc2ccc3c(C)cc(=O)oc3c2)cc1 [XIE18-6] | – | 105.5 | – | multi-lineage differentiation profile (GM, T, B) compared with the control group ([4]; 16 weeks after transplantation): did not cause predominant growth of any specific lineages; increase in engraftment compared with the DMSO control group ([4]; CD34-LKS cells cultured 3 days with 20 μM compound, co-transplanted with competitor cells into lethally irradiated mice, bone marrow 16 weeks after transplantation): 3.01 fold; increase in engraftment compared with the uncultured group ([4]; cells cultured 3 days with 20 μM compound, 16 weeks after transplantation): 2.20 fold; HSC frequency (1 in x of the original plated cells) [5]: 42,490; frequency of HSC, fold higher than control group [5]: 2.7 fold
